Molecular target: β2AR (human β2 adrenergic receptor) (Homo sapiens, UniProt P07550)
Assay: radioligand binding
Conditions: labelled compound; antagonist; detergent micelles (PPM or DDM, CMC+0.2 wt%); room temperature

β2AR (human β2 adrenergic receptor), sequence (P07550 whole entry): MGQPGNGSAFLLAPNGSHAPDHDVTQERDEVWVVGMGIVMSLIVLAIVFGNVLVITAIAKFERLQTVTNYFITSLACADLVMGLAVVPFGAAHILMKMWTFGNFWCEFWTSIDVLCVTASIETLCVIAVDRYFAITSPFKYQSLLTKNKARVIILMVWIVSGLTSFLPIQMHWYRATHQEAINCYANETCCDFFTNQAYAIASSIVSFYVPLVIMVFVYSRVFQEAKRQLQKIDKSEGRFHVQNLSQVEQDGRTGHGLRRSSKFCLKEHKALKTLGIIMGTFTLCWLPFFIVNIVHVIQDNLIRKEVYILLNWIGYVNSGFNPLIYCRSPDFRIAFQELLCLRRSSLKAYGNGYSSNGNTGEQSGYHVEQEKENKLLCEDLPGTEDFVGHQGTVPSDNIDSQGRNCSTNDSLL

Q: `CCCc1ccccc1OCC(O)CNC(C)C` (stereo not shown) [[3H]-dihydroalprenolol] was tested. Which radioligand binding did it give?
A: receptor ability to bind the radio-labelled antagonist ([^3H]-dihydroalprenolol (DHA))
